Results from ChEMBL document CHEMBL1144194, “Initial SAR studies on apamin-displacing 2-aminothiazole blockers of calcium-activated small conductance potassium channels” (Bioorg Med Chem Lett, 2008).
Calls of active or inactive are those of the source. The rule behind the calls is not given here. Peptide text beside a SMILES is read from it.

What was measured:
[1] = Inhibition of Kca channel
[2] = biological target: T1, Small conductance calcium-activated potassium channel protein 3 (Homo sapiens, UniProt Q9UGI6); assay: Inhibition of Kca2.3 channel expressed in HEK293 cells at 30 uM by thallium flux assay; format: cell-based
[3] = biological target: T1, Small conductance calcium-activated potassium channel protein 3; assay: Inhibition of Kca2.3 channel expressed in HEK293 cells by thallium flux assay; format: cell-based
[4] = Inhibition of guinea-pig Kca channel; set-up: species or system Cavia porcellus
[5] = biological target: Intermediate conductance calcium-activated potassium channel protein 4 (Homo sapiens) (UniProt O15554); assay: Inhibition of Kca3.1 channel expressed in HEK293 cells at 30 uM by thallium flux assay; format: cell-based
[6] = biological target: T1, Small conductance calcium-activated potassium channel protein 3; assay: Inhibition of Kca2.3 channel expressed in HEK293 cells by electrophysiology assay; format: cell-based
[7] = biological target: T2, Small conductance calcium-activated potassium channel protein 2 (Homo sapiens, UniProt Q9H2S1); assay: Inhibition of Kca2.2 channel expressed in HEK293 cells by thallium flux assay; format: cell-based
[8] = biological target: Small conductance calcium-activated potassium channel protein 1 (Homo sapiens, UniProt Q92952); assay: Inhibition of Kca2.1 channel expressed in HEK293 cells by thallium flux assay; format: cell-based
[9] = biological target: T2, Small conductance calcium-activated potassium channel protein 2; assay: Displacement of [125I]apamin from Kca2.2 channel expressed in HEK293 cells; format: cell-based
[10] = biological target: Intermediate conductance calcium-activated potassium channel protein 4 (Homo sapiens) (UniProt O15554); assay: Inhibition of Kca3.1 channel expressed in HEK293 cells by thallium flux assay; format: cell-based
[11] = biological target: T1, Small conductance calcium-activated potassium channel protein 3; assay: Displacement of [125I]apamin from Kca2.3 channel expressed in HEK293 cells by scintillation proximity assay; format: cell-based

T1 sequence (Q9UGI6 whole entry): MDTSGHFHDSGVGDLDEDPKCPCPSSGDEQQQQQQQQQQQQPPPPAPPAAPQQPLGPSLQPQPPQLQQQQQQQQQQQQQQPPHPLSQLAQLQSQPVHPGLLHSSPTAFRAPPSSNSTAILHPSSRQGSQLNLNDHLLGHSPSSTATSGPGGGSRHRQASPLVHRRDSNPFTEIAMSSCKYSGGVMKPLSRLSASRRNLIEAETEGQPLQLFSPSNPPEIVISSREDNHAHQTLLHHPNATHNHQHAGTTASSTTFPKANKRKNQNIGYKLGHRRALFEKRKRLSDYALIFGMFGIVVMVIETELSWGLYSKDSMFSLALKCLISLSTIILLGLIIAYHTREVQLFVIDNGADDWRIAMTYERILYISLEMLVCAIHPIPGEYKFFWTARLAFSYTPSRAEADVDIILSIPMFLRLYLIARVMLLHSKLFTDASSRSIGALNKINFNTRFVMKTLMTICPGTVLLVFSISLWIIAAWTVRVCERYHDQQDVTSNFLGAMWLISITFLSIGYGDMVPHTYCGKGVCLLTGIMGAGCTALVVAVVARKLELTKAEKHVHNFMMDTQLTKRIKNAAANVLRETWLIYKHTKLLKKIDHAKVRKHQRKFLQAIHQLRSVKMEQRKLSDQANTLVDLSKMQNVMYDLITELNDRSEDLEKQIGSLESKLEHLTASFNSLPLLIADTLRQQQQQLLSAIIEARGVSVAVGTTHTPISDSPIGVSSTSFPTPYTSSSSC
T2 sequence (Q9H2S1 whole entry): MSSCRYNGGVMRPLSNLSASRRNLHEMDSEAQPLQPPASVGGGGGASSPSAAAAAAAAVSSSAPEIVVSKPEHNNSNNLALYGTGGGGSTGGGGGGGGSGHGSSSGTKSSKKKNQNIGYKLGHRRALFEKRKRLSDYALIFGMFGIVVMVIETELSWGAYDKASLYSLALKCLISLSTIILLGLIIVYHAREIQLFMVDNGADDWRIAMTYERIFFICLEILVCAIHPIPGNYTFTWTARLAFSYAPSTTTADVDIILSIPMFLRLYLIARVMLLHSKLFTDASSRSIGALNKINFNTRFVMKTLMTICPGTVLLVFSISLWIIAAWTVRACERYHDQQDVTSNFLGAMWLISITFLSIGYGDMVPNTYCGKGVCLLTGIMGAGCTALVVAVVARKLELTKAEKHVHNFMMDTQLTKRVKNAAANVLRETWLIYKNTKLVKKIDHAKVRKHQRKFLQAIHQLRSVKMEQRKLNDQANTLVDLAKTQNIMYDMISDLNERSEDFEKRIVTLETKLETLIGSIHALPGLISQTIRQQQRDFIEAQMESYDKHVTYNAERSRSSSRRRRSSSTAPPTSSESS
Intermediate conductance calcium-activated potassium channel protein 4 (Homo sapiens), sequence (O15554 whole entry): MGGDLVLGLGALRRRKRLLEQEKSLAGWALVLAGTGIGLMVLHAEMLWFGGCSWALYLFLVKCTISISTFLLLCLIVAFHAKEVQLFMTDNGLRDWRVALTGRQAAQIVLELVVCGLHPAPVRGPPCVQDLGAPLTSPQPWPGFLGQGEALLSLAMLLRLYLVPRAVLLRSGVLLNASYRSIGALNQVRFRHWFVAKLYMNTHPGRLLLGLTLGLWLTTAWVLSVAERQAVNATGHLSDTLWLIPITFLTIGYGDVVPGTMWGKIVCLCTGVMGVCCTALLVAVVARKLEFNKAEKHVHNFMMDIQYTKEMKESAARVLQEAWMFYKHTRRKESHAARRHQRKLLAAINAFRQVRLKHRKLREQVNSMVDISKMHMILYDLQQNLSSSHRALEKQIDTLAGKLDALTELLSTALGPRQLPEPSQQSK
Small conductance calcium-activated potassium channel protein 1, sequence (Q92952 whole entry): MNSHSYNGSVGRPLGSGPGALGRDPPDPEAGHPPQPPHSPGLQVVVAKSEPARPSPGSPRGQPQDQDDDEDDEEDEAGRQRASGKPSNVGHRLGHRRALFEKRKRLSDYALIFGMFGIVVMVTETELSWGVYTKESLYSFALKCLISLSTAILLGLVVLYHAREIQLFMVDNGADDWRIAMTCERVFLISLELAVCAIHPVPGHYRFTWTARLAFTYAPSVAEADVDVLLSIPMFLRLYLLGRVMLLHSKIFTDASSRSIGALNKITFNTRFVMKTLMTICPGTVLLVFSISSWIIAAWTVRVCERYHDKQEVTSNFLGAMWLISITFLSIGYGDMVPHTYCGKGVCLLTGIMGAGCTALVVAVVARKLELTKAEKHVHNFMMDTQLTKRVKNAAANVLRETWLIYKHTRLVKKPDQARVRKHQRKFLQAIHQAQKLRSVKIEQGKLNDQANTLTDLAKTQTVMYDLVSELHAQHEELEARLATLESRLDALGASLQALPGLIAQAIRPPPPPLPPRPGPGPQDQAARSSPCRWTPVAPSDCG

Row | Structure (SMILES) | inhibition [2] | IC50 [3] | other results
1 | c1cc2cc(c1)C[n+]1ccc(c3ccccc31)NCc1ccc(cc1)CNc1cc[n+](c3ccccc13)C2 |  |  | IC50 [1]: 3 nM
2 | c1ccc(Cc2nc(-c3ccccn3)cs2)nc1 | 15% | > 30000 nM | 
3 | CC[C@H](C)[C@H](NC(=O)[C@H](CS)NC(=O)[C@H](CCCCN)NC(=O)CNC(=O)[C@H](CC(C)C)NC(=O)[C@H](CC(C)C)NC(=O)CNC(=O)[C@H](CC(C)C)NC(=O)[C@H](CO)NC(=O)[C@H](CCCNC(=N)N)NC(=O)[C@H](CS)NC(=O)[C@H](CO)NC(=O)[C@H](CC(C)C)NC(=O)[C@H](CCC(N)=O)NC(=O)[C@H](CS)NC(=O)[C@H](CCSC)NC(=O)[C@H](CCCNC(=N)N)NC(=O)[C@H](CC(C)C)NC(=O)[C@H](CC(N)=O)NC(=O)[C@H](CS)NC(=O)[C@H](Cc1ccccc1)NC(=O)[C@H](C)N)C(=O)NCC(=O)N[C@@H](CC(=O)O)C(=O)N[C@@H](CCCCN)C(=O)N[C@@H](CS)C(=O)N[C@@H](CCC(=O)O)C(=O)N[C@@H](CS)C(=O)N[C@H](C(=O)N[C@@H](CCCCN)C(=O)N[C@@H](Cc1cnc[nH]1)C(=O)O)C(C)C [Scyllatoxin] (H-AFCNLRMCQLSCRSLGLLGKCIGDKCECVKH-OH) |  |  | Ki [4]: 0.075 nM
4 | c1ccc(Nc2nc(-c3ccncc3)cs2)nc1 |  | > 30000 nM | 
5 | c1ccc(Nc2nc(-c3cccnc3)cs2)nc1 | 14% | > 30000 nM | 
6 | c1ccc(-c2csc(-c3ccccn3)n2)nc1 | 16% | > 30000 nM | 
7 | Cc1cc(N)c2ccccc2[n+]1CCCCCCCCCC[n+]1c(C)cc(N)c2ccccc21 [DEQUALINIUM CHLORIDE] |  | 1300 nM | IC50 [6]: 2000 nM; IC50 [1]: 1000 nM
8 | c1ccc(Nc2nc(-c3ccccn3)cs2)cc1 | 9% |  | 
9 | c1ccc(-c2csc(Nc3ccncc3)n2)nc1 | 14% | > 30000 nM | 
10 | c1ccc2c(c1)CCC[C@H]2Nc1nc2ccccc2[nH]1 |  |  | IC50 [1]: 500 nM
11 | c1ccc(Nc2nc(-c3ccccc3)cs2)cc1 | 18% | > 30000 nM | 

Continued, in another order:

Row | inhibition [2] | IC50 [3] | Structure (SMILES) | other results
12 | 98% |  | Cc1ccnc(Nc2nc(-c3ccccn3)cs2)c1 | inhibition [5]: 10%
13 | 8% | > 30000 nM | FC(F)(F)c1cnc(Nc2nc(-c3ccccn3)cs2)c(Cl)c1 | 
14 | 45% |  | c1ccc(-c2csc(Nc3cccnc3)n2)nc1 | 
15 | 29% | > 30000 nM | Ic1ccc(Nc2nc(-c3ccccn3)cs2)nc1 | 
16 | 24% | > 30000 nM | c1ccc(-c2csc(Nc3ncccn3)n2)nc1 | 
17 | 89% | 543 nM | c1ccc(Nc2nc(-c3ccccn3)cs2)nc1 | IC50 [7]: 123 nM; IC50 [6]: 290 nM; IC50 [8]: 43 nM; IC50 [9]: 543 nM; Activity [10]: inactive; IC50 [11]: 25 nM
